We go through 19 molecules from patent US10197557B2, “Small molecules for endothelial cell activation” (The Regents of the University of California, priority 2011, dated 2019).

“Also recorded” adds a separate entry of the source.

One assay deals with human endothelial cells. Kind of assay: EC-PBMC co-culture assay, chemokines quantified by cytometric bead arrays. It counts as cell-based. The following applies: for EC activation of octahydro-1,6-naphthyridin-4-one analogs (percent induction relative to IFNγ): focused library of 96 analogs, initial test (FIG. 6A, 6B). As to the method: FIGS. 9A-9C show a further embodiment of the invention biological platform for the detection of activated endothelium. (A) Primary endothelial cells were seeded to confluence in a 96 well format and activated by IFNγ (10 ng/ml). After 5 hours, IFNγ was removed, wells were washed, and then primary human peripheral blood mononuclear cells (PBMC) were added at a ratio of 3:1 (PBMC:EC). 20-24 hours later, supernatants were removed and chemokines were quantified by cytometric bead arrays. (B) MIP1β production, but not MIP1α or IL8 levels, reliably detects endothelium activated by IFNγ. Chemokines produced in co-culture conditions with quiescent vs. activated EC; data represent the results from n=7 (MIP1α and MIP1β) and n=6 (IL8) independent experiments. (C) Chemical library screen for compounds that activate human endothelium. A 642 compound library was added following the same method as in A and B. Controls included DMSO and IFNγ on each plate. Supernatants were measured for chemokines by cytometric bead arrays.
Activation of the endothelium is intricately linked to innate immunity. […] Therefore we hypothesized that compounds that “activate” the endothelium could be identified indirectly—endothelium encountering activating compounds would gain the capacity to trigger chemokine production by monocytes. To test this hypothesis, we designed an EC-monocyte co-culture system amenable to high-throughput compound screening (FIG. 9A). […] Subsequently, EC were treated with DMSO (vehicle control), IFNγ (EC-activation control), and a collection of 642 compounds (final concentration, […]) (FIG. 9C). Of the 642 compounds, 37 (5.8%) promoted MIP1β production (FIG. 5A).
HUVEC were grown to 80-90% confluency in T150 flasks (Corning). On the day of experiments, HUVEC were harvested and plated at a confluent density in 96 well plates; these were either half or full volume plates, requiring 2.5-5×10^4 EC per well, respectively, in complete EBM-2 media (Lonza). After adherence for 2-3 hours, IFNγ (10 ng/ml), DMSO, or compound library (final concentration, […]) was added in incomplete EBM-2 media (Lonza). After 5 hours, stimuli were removed and cells were gently washed twice with RPMI (Invitrogen), followed by addition of 7.5-10×10^4 human PBMC in 10% FCS. For cytokine analysis, […] was removed at 24 hours for CBA analysis. The biological effects observed were not attributable to either LPS contamination, nor to cellular toxicity, as determined by flow cytometric analysis and 3-(4,5-dimethylhiazol-2-yl)-2,5-diphenyl tetrazolium bromide (MTT) assay.
[…] of supernatant from EC alone, PBMC alone, or co-culture conditions was collected for CBA analysis for IL8, MIP1α, and MIP1β. CBA was performed as per the manufacturer's recommendations (Becton Dickinson). Standard curves and all samples were acquired on a FacsCalibur flow cytometer and data was analyzed using FloJo software.

The next assay has as its system HUVEC. Kind of assay: Transcriptome profiling (microarray) of treated EC, Ingenuity Pathway Analysis. The class given is cell-based, human. The following applies: 10 μM, 5 hours; for gene probes induced in comparison to vehicle control: fold change >1.25, p-value <0.05. As to the method:
HUVEC were grown as described above, and then plated at 1×10^6 in 6 well plates in complete EBM-2. […] After 5 hours, media was removed and RNA was extracted using Trizol (Invitrogen), followed by RNeasy Minelut Cleanup Kit (Qiagen). RNA was taken to the UCLA Microarray Core Center where it was processed using the Human Genome Affymetrix U133 Plus 2.0 Array. Microarray data was analyzed using dChip software (version Nov. 18, 2007) from the Cheng Li Lab at http://biosun1.harvard.edu/complab/dchip. For statistical analysis using dChip software, only gene probes that were minimally present in two of the three replicates were used, and parameters for significance were set at fold change >1.25, p-value <0.05. Total number of probes present for active analogue (D10): 30,228. […] Unsupervised dendrograms were created using dChip software. Genes with known function in immune regulation were selected based on published databases and gene functions identified by Gene Ontology or OMIM; dendrogram was created using dChip software.
Experimental results were compared using student t-tests; results were considered significant if p-value was <0.05. Canonical network analysis for all expressed probes in D10 and E2 datasets was performed by using Ingenuity Pathway Analysis software (version 6.0; Ingenuity Systems).

In another assay the test system is E-selectin. Kind of assay: E-selectin expression on EC by flow cytometric analysis. The class given is cell-based, human. The conditions noted are these: in comparison to vehicle control (FIG. 8C). On the procedure:
(§1) HUVEC were stimulated with IFNγ, DMSO, or compounds of interest (10 μM) for 5 hours. Stimuli were removed and cells were gently washed and media was replaced with 10% FCS for 24 hours. Cells were stained with anti-ICAM1 and anti-E-selectin, or appropriate isotype antibodies. For intracellular chemokine staining, stimulations of HUVEC were carried out as mentioned above with IFNγ, DMSO and compound of interest. After 8 hours of PBMC and HUVEC co-culture incubation, Golgi Plug (Becton Dickinson) was added to the culture and incubation carried out for an additional 16 hours. After the incubation cells were fixed, permeabilized and stained with anti-CD14 and anti-MIP1b or appropriate isotype controls. Samples were then analyzed with a FacsCalibur flow cytometer and subsequent data analysis was performed using FloJo software.
On the technique in general: A flow cytometer gives signals particle by particle.

The next assay relates to MIP1β. Kind of assay: Intracellular flow cytometry of EC-PBMC co-cultures (CD14, MIP1β). It counts as cell-based, human. The conditions noted are these: PBMC added to activated EC (FIG. 5D). As to the method: as §1

Regarding `Cc1ccc(S(=O)(=O)N2[C@H](c3ccccc3)CC(=O)[C@@H]3CN(S(C)(=O)=O)[C@H](c4ccccc4)C[C@@H]32)cc1` [2B2], the “EC activation of octahydro-1,6-naphthyridin-4-one analogs (percent induction relative to IFNγ)” value in the assay with human endothelial cells is “lost their activity; also recorded: inactive”.

Regarding `Cc1ccc(S(=O)(=O)N2C[C@H]3[C@@H](O)C[C@@H](c4ccccc4)N(S(=O)(=O)c4ccc(C)cc4)[C@H]3C[C@H]2c2cccc(Cl)c2)cc1` [2B6], in the assay with human endothelial cells, the “EC activation of octahydro-1,6-naphthyridin-4-one analogs (percent induction relative to IFNγ)” value is on record as “active”.

`CCO[C@H]1C[C@@H](c2ccccc2)N(S(=O)(=O)c2ccc(C)cc2)[C@H]2C[C@@H](c3cccc(Cl)c3)N(S(=O)(=O)c3ccc(C)cc3)C[C@@H]12` [2B7]: the “EC activation of octahydro-1,6-naphthyridin-4-one analogs (percent induction relative to IFNγ)” value with human endothelial cells was “active”.

With `Cc1ccc([C@@H]2C[C@H]3[C@@H](CN2S(=O)(=O)c2ccccc2)C(=O)C[C@@H](c2ccccc2)N3S(=O)(=O)c2ccc(C)cc2)cc1` [C8], the “EC activation of octahydro-1,6-naphthyridin-4-one analogs (percent induction relative to IFNγ)” value with human endothelial cells is “active”.

Take `COc1ccc([C@@H]2C[C@H]3[C@@H](CN2S(=O)(=O)c2ccccc2)C(=O)C[C@@H](c2ccc(C)cc2)N3S(=O)(=O)c2ccc(C)cc2)cc1` [C9]: in the assay with human endothelial cells, the “EC activation of octahydro-1,6-naphthyridin-4-one analogs (percent induction relative to IFNγ)” value is listed as “active”.

Consider `COc1ccc([C@@H]2CC(=O)[C@@H]3CN(S(=O)(=O)c4ccc(C)cc4)[C@H](c4ccccc4)C[C@@H]3N2S(=O)(=O)c2ccccc2)cc1` [D5], for which, in the assay with human endothelial cells, the “EC activation of octahydro-1,6-naphthyridin-4-one analogs (percent induction relative to IFNγ)” value was “did not exhibit EC-activation; also recorded: inactive”.

For the molecule `Cc1ccc([C@@H]2C[C@H]3[C@@H](CN2S(=O)(=O)c2ccc(C)cc2)C(=O)C[C@@H](c2ccc(C)cc2)N3S(=O)(=O)c2ccc(C)cc2)cc1` [D6], the “EC activation of octahydro-1,6-naphthyridin-4-one analogs (percent induction relative to IFNγ)” value in the assay with human endothelial cells was “active”.

With `COc1ccc([C@@H]2CC(=O)[C@@H]3CN(S(=O)(=O)c4ccc(C)cc4)[C@H](c4ccc(C)cc4)C[C@@H]3N2S(=O)(=O)c2ccccc2)cc1` [D9], the “EC activation of octahydro-1,6-naphthyridin-4-one analogs (percent induction relative to IFNγ)” value in the assay with human endothelial cells is “did not exhibit EC-activation; also recorded: inactive”.

As to `CCc1ccc([C@@H]2C[C@H]3[C@@H](CN2S(=O)(=O)c2ccc(C)cc2)C(=O)C[C@@H](c2ccc(CC)cc2)N3S(=O)(=O)c2ccc(C)cc2)cc1` [D10], the “EC activation of octahydro-1,6-naphthyridin-4-one analogs (percent induction relative to IFNγ)” value in the assay with human endothelial cells is given as “active”. The “gene probes induced in comparison to vehicle control” value with HUVEC (EC) was 201 gene probes. The “canonical pathways engaged (Ingenuity Pathway Analysis)” value in the assay with HUVEC (induced genes of EC) came out at 32 canonical pathways. Moreover, in the assay with HUVEC (microarray, EC), the E-selectin gene induction entry is “uniquely induced”. For the same molecule, the “E-selectin expression levels (protein)” value with E-selectin is given as “markedly enhanced”.

In the case of `CCc1ccc([C@@H]2C[C@H]3[C@@H](CN2S(=O)(=O)c2ccc(C)cc2)C(=O)C[C@@H](c2ccc(Cl)cc2)N3S(=O)(=O)c2ccc(C)cc2)cc1` [D11], the “EC activation of octahydro-1,6-naphthyridin-4-one analogs (percent induction relative to IFNγ)” value in the assay on human endothelial cells is “active”.

For `CCc1ccc([C@@H]2C[C@H]3[C@@H](CN2S(=O)(=O)c2ccc(C)cc2)C(=O)C[C@@H](c2ccc(OC)cc2)N3S(=O)(=O)c2ccccc2)cc1` [E2], the “EC activation of octahydro-1,6-naphthyridin-4-one analogs (percent induction relative to IFNγ)” value in the assay on human endothelial cells was “some activity; also recorded: inactive”. For the same molecule, in the assay with human endothelial cells (validation of analogs, FIG. 6C, two independent experiments in triplicate wells), the “EC activation, confirmatory studies” value was “relatively inactive”. Also, the “gene probes induced in comparison to vehicle control” value in the assay with HUVEC (EC) is recorded as 49 gene probes. For the same molecule, in the assay with HUVEC (induced genes of EC), the “networks related to immune regulation activated” value is recorded as “did not activate any networks related to immune regulation”.

As for `Cc1ccc(S(=O)(=O)N2C[C@H]3C(=O)C[C@@H](c4ccccc4)N(S(=O)(=O)c4ccc(C)cc4)[C@H]3C[C@H]2c2ccccc2F)cc1` [E3], in the assay on human endothelial cells, the “EC activation of octahydro-1,6-naphthyridin-4-one analogs (percent induction relative to IFNγ)” value is “active”.

`COc1ccc([C@@H]2CC(=O)[C@@H]3CN(S(=O)(=O)c4ccc(C)cc4)[C@H](c4ccccc4F)C[C@@H]3N2S(=O)(=O)c2ccccc2)cc1` [E8]: the “EC activation of octahydro-1,6-naphthyridin-4-one analogs (percent induction relative to IFNγ)” value in the assay on human endothelial cells is “did not exhibit EC-activation; also recorded: inactive”.

With `COc1ccc([C@@H]2CC(=O)[C@@H]3CN(S(=O)(=O)c4ccc(Cl)cc4)[C@H](c4ccc(C)cc4)C[C@@H]3N2S(=O)(=O)c2ccccc2)cc1` [F7], in the assay on human endothelial cells, the “EC activation of octahydro-1,6-naphthyridin-4-one analogs (percent induction relative to IFNγ)” value was “did not exhibit EC-activation; also recorded: inactive”.

For the molecule `COc1ccc([C@@H]2C[C@H]3[C@@H](CN2S(=O)(=O)c2ccccc2)C(=O)C[C@@H](c2ccc(OC)cc2)N3S(=O)(=O)c2ccccc2)cc1` [F10], the “EC activation of octahydro-1,6-naphthyridin-4-one analogs (percent induction relative to IFNγ)” value in the assay on human endothelial cells is “did not exhibit EC-activation; also recorded: inactive”.

Turning to `CCOc1cc(-c2ccccc2)nc2c1CN(S(=O)(=O)c1ccc(C)cc1)[C@H](c1cccc(Cl)c1)C2` [G9], the “EC activation of octahydro-1,6-naphthyridin-4-one analogs (percent induction relative to IFNγ)” value in the assay on human endothelial cells is “inactive”.

As to `Cc1ccc(S(=O)(=O)N2CC[C@H]3[C@@H](C2)C(=O)C[C@@H](c2ccccc2)N3S(=O)(=O)c2ccc(C)cc2)cc1` [H6], the “EC activation of octahydro-1,6-naphthyridin-4-one analogs (percent induction relative to IFNγ)” value in the assay on human endothelial cells is listed as “did not affect the naphthyridinone's EC-activation; also recorded: active”.

As for `Cc1ccc(S(=O)(=O)N2C[C@H]3C(=O)C[C@@H](c4ccccc4)N(S(C)(=O)=O)[C@H]3C[C@H]2c2ccccc2)cc1` [H11], the “EC activation of octahydro-1,6-naphthyridin-4-one analogs (percent induction relative to IFNγ)” value in the assay with human endothelial cells was “lost their activity; also recorded: inactive”.

For interferon gamma [IFNγ], in the assay on human endothelial cells (treated EC co-cultured with PBMC (FIG. 10B)), the “MIP1α production in co-culture” value is “comparable levels”. Also, in the assay on human endothelial cells (treated EC co-cultured with PBMC, in comparison to DMSO (FIG. 10A)), the “IL8 production from monocytes in co-culture” value is recorded as “inhibited”. For the same molecule, the “dominant producers of MIP1β in co-culture” value in the assay on MIP1β was “CD14+ monocytes”.
